The record followed here is patent US20240261417A1, “SOS1 DEGRADING AGENT AND PREPARATION METHOD THEREFOR AND APPLICATION THEREOF” (SHANGHAI LEADINGTAC PHARMACEUTICAL CO. LTD., priority 2021, published 2024).

The target in test [1] is T1, SOS1 protein (Homo sapiens, UniProt Q07889).
T1 sequence (Q07889 1-1333): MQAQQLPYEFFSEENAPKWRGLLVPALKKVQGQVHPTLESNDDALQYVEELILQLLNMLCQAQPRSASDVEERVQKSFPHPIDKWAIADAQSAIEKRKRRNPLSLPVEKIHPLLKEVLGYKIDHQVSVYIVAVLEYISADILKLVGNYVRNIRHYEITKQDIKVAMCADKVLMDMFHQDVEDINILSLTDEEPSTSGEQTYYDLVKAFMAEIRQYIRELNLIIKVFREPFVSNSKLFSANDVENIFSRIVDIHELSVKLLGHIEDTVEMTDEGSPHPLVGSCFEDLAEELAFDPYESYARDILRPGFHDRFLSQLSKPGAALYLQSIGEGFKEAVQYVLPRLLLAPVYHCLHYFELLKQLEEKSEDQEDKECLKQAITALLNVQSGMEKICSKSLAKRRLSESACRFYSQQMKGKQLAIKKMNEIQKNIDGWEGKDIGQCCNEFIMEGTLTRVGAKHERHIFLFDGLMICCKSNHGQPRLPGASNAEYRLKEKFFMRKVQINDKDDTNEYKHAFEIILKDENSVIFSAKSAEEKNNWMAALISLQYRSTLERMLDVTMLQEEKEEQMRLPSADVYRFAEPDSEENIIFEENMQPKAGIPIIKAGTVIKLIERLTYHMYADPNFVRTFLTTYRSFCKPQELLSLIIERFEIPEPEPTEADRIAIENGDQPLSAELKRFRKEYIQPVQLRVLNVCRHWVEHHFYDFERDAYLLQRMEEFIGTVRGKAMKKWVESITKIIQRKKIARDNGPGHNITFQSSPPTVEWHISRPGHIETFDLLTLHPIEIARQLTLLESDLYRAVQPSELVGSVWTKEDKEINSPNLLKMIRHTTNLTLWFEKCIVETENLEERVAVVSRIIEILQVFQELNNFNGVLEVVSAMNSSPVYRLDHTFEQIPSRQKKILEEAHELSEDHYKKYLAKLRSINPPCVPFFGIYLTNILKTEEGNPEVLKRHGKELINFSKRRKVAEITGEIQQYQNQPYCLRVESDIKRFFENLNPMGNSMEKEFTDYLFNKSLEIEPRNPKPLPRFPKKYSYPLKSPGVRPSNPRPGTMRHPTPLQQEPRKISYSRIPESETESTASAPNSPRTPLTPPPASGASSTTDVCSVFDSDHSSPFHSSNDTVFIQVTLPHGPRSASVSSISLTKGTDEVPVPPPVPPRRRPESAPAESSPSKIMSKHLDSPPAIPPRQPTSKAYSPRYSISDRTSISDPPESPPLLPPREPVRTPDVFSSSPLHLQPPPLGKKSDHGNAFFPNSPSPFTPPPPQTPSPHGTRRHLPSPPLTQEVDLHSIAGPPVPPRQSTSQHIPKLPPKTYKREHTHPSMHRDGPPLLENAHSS
Nature of the test: SOS1 degradation assay (Western blot), A-427 cells. The class given is cell-based. Further details: host or cells: A-427 (human cancer cell lines). As to conditions: 24 h; for DC50: read-out: A427 (G12D) DC50; for Dmax: read-out: A427 (G12D) Dmax. How it is done:
The specific procedures were as follows:
0.95 mL of cells were seeded into each well of a 24-well cell culture plate to achieve a cell density of 5×10^5 cells/well; the cell plate was incubated in an incubator at 37° C. with 5% CO2 overnight. Then 50 μL of the compound solution after dilution was added to each of the wells with the corresponding cells, so that the final concentration of the compound was in a range of 0.03-3000 nM. […] After dosing, the cell plate was incubated in an incubator at 37° C. with 5% CO2 for 24 h. […] After the plate was left to stand on ice for 30 min, the protein lysate in each well was transferred to a 1.5 mL centrifuge tube and centrifuged at 15000 g for 20 min at 4° C. The cell lysate supernatant after centrifugation was cryopreserved at −80° C. for testing and was used for determining the degradation level of the SOS1 protein by a WB method. The concentration of total protein in the cell lysate supernatant was determined using the BCA Protein Quantification Kit (Tiangen, PA115-02).
The concentration of total protein in the cell lysate was determined by BCA. The total protein was adjusted to 0.5 μg/μL with PBS and 5× SDS-PAGE protein loading buffer (Beyotime, P0015L), incubated in a water bath at 100° C. for 15 min, incubated in an ice bath on ice for 5 min, centrifuged at 14000 g for 1 min at 4° C., and mixed well as a loading sample for WB. Protein electrophoresis was performed on a precast gel (KeyGEN, KGMGO10W15) with a loading volume of 10 μL (total protein: 5 μg) using a Tris-MOPS-SDS running solution (Adamas, P1598253) at a constant voltage of 120 V for 55 min. After the electrophoresis, the protein on the gel strip was transferred to a PVDF membrane at a constant current of 250 mA for 65 min. After the membrane transfer, the membrane was incubated in 1× QuickBlock blocking buffer (Beyotime, P0235) for 30 min at room temperature. […] The protein map was subjected to gray value analysis by the chemiluminescence imaging system from Clinx. […] Then the degradation rate was calculated by comparing the gray correction value with the gray correction value of the control group. Then nonlinear curve fitting was performed by GraphPad Prism 8 in the logarithmic concentration-inhibition rate to obtain the DC50 and Dmax values of the compounds.

The target in test [2] is T1, SOS1 protein. Nature of the test: SOS1 degradation assay (Western blot), NCI-H358 cells. The class given is cell-based. The conditions noted are these: SOS1 degradation, NCI-H358 cells, 24 h, Western blot; for DC50: read-out: NCI-H358 (G12C) DC50; for Dmax: read-out: NCI-H358 (G12C) Dmax. Further details: The degradation of SOS1 by the compounds was investigated on KRAS G12C mutant human non-small cell lung cancer cells NCI-H358; host or cells: NCI-H358 (human cancer cell lines). The procedure, abridged:
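SOS1 degradation was assessed by densitometry of Western blots, relative to untreated controls, after 24 h compound exposure (0.03–3000 nM final, 37 °C, 5% CO2) of cells seeded at 5×10^5/well. Log concentration–response fitting gave DC50 and Dmax.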

`COc1cc2nc(C)nc(N[C@H](C)c3cc(N)cc(C(F)(F)F)c3)c2cc1[C@H]1CC[C@H](C(=O)N2CCN(CCC3CCC4(CC3)CCN(C(=O)c3ccc(Cl)c(N5CCC(=O)NC5=O)c3)CC4)CC2)CC1` [Example 1, 1-(5-(9-(2-(4-((1R,4R)-4-(4-(((R)-1-(3-amino-5-(trifluoromethyl)phenyl)ethyl)amino)-7-methoxy-2-methylquinazolin-6-yl)cyclohexane-1-carbonyl)piperazin-1-yl)ethyl)-3-azaspiro[5.5]undecane-3-carbonyl)-2-chlorophenyl)dihydropyrimidine-2,4(1H,3H)-dione]: on SOS1 protein [1], the DC50 (usually the midpoint of the concentration-degradation curve) is less than 50 nM and the Dmax (usually the largest share of the target that was removed) is 80 to 100%. On SOS1 protein [2], the 50% degradation concentration (DC50) was less than 50 nM and the Dmax lay within 80 to 100%.

As to `COc1cc2nc(C)nc(N[C@H](C)c3cc(N)cc(C(F)(F)F)c3)c2cc1[C@H]1CC[C@H](C(=O)N2CCN(CC3CCC4(CC3)CCN(C(=O)c3ccc(Cl)c(N5CCC(=O)NC5=O)c3)CC4)CC2)CC1` [Example 2, 1-(5-(9-((4-((1R,4R)-4-(4-(((R)-1-(3-amino-5-(trifluoromethyl)phenyl)ethyl)amino)-7-methoxy-2-methylquinazolin-6-yl)cyclohexane-1-carbonyl)piperazin-1-yl)methyl)-3-azaspiro[5.5]undecane-3-carbonyl)-2-chlorophenyl)dihydropyrimidine-2,4(1H,3H)-dione], at SOS1 protein [1], the DC50 is less than 50 nM and the Dmax fell in the range of 80 to 100%. In addition, on SOS1 protein [2], the DC50 was less than 50 nM and the Dmax was 80 to 100%.

On to `COc1cc2nc(C)nc(N[C@H](C)c3cccc4c3CCS4(=O)=O)c2cc1[C@H]1CC[C@H](C(=O)N2CCN(CC3CCC4(CC3)CCN(C(=O)c3ccc(Cl)c(N5CCC(=O)NC5=O)c3)CC4)CC2)CC1` [Example 10, 1-(2-chloro-5-(9-((4-((1R,4R)-4-(4-(((R)-1-(1,1-dioxo-2,3-dihydrobenzo[b]thiophen-4-yl)ethyl)amino)-7-methoxy-2-methylquinazolin-6-yl)cyclohexane-1-carbonyl)piperazin-1-yl)methyl)-3-azaspiro[5.5]undecane-3-carbonyl)phenyl)dihydropyrimidine-2,4(1H,3H)-dione], for which, at SOS1 protein [1], the DC50 was less than 50 nM and the Dmax lay within 80 to 100%. Besides, on SOS1 protein [2], the DC50 is less than 50 nM and the Dmax lay within 50 to 80%.

Turning to `COc1cc2nc(C)nc(N[C@H](C)c3cc(N)cc(C(F)(F)F)c3)c2cc1[C@H]1CC[C@H](C(=O)N2CCC(CCOCC3CCN(C(=O)c4ccc(Cl)c(N5CCC(=O)NC5=O)c4)CC3)CC2)CC1` [Example 19, 1-(5-(4-((2-(1-((1R,4R)-4-(4-(((R)-1-(3-amino-5-(trifluoromethyl)phenyl)ethyl)amino)-7-methoxy-2-methylquinazolin-6-yl)cyclohexane-1-carbonyl)piperidin-4-yl)ethoxy)methyl)piperidine-1-carbonyl)-2-chlorophenyl)dihydropyrimidine-2,4(1H,3H)-dione], on SOS1 protein [1], the DC50 was less than 50 nM and the Dmax was 50 to 80%. On SOS1 protein [2], the DC50 fell in the range of 100 to 500 nM and the Dmax is 50 to 80%.

For `COc1cc2nc(C)nc(N[C@H](C)c3cc(N)cc(C(F)(F)F)c3)c2cc1[C@H]1CC[C@H](C(=O)N2CCN(CCOCC3CCN(C(=O)c4ccc(Cl)c(N5CCC(=O)NC5=O)c4)CC3)CC2)CC1` [Example 33, 1-(5-(4-((2-(4-((1R,4R)-4-(4-(((R)-1-(3-amino-5-(trifluoromethyl)phenyl)ethyl)amino)-7-methoxy-2-methylquinazolin-6-yl)cyclohexane-1-carbonyl)piperazin-1-yl)ethoxy)methyl)piperidine-1-carbonyl)-2-chlorophenyl)dihydropyrimidine-2,4(1H,3H)-dione], the DC50 on SOS1 protein [1] and at SOS1 protein [2] was less than 50 nM throughout. Besides, the Dmax at SOS1 protein [1] and on SOS1 protein [2] was 80 to 100% throughout.

For the compound `CNCc1ccccc1-c1csc([C@@H](C)Nc2nc(C)nc3cc(OC)c([C@H]4CC[C@H](C(=O)N5CCN(CC6CCC7(CC6)CCN(C(=O)c6ccc(OC)c(N8CCC(=O)NC8=O)c6)CC7)CC5)CC4)cc23)c1` [Example 73, 1-(2-methoxy-5-(9-((4-((1R,4R)-4-(7-methoxy-2-methyl-4-(((R)-1-(4-(2-((methylamino)methyl)phenyl)thien-2-yl)ethyl)amino)quinazolin-6-yl)cyclohexane-1-carbonyl)piperazin-1-yl)methyl)-3-azaspiro[5.5]undecane-3-carbonyl)phenyl)dihydropyrimidine-2,4(1H,3H)-dione], at SOS1 protein [1], the DC50 was less than 50 nM and the Dmax fell in the range of 80 to 100%. At SOS1 protein [2], the DC50 was less than 50 nM and the Dmax was in the range of 80 to 100%.
